Reference: paper PMC9297976 (Journal of Applied Toxicology, 2021)

What was measured:
[1] = system: Japanese medaka (Oryzias latipes); assay: Fish Short‐Term Reproduction Assay; format: in vivo; details: for LOECREPRO: LOEC on reproduction (fecundity and/or fertility); for LOECTOX: lowest observed effect concentration on mortality; for GSI Female / GSI Male / HSI Female / HSI Male / Length Female / Length Male / Weight Female / Weight Male: completion of exposure
[2] = target: T1, medaka Esr1 (mEsr1) (Oryzias latipes, UniProt P50241); assay: Medaka Esr1 reporter gene assay, antagonist assay; format: cell-based, Japanese medaka (Oryzias latipes); details: E2 spiked at 1.0 nM (B)
T1 sequence (P50241 1-620): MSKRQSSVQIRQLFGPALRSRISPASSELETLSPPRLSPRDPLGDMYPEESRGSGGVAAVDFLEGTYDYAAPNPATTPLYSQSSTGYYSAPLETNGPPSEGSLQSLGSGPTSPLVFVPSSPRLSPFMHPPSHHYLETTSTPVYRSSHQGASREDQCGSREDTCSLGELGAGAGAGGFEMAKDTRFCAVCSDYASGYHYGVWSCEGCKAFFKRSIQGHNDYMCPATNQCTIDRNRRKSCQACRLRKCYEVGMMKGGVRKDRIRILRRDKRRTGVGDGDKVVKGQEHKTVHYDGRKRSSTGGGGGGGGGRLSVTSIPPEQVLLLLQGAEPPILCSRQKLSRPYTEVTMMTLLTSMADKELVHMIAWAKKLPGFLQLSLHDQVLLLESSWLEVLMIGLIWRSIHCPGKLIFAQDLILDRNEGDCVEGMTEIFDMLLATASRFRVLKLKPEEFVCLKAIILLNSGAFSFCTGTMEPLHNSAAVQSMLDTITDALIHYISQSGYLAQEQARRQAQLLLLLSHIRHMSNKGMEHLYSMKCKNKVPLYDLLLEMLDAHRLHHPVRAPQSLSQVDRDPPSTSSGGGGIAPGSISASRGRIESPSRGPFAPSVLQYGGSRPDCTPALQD

[3] = target: T2, medaka ARβ (mArβ) (Oryzias latipes, UniProt D1MV73); assay: Medaka ARβ reporter gene assay, antagonist assay; format: cell-based, Japanese medaka (Oryzias latipes)
T2 sequence (D1MV73 1-744): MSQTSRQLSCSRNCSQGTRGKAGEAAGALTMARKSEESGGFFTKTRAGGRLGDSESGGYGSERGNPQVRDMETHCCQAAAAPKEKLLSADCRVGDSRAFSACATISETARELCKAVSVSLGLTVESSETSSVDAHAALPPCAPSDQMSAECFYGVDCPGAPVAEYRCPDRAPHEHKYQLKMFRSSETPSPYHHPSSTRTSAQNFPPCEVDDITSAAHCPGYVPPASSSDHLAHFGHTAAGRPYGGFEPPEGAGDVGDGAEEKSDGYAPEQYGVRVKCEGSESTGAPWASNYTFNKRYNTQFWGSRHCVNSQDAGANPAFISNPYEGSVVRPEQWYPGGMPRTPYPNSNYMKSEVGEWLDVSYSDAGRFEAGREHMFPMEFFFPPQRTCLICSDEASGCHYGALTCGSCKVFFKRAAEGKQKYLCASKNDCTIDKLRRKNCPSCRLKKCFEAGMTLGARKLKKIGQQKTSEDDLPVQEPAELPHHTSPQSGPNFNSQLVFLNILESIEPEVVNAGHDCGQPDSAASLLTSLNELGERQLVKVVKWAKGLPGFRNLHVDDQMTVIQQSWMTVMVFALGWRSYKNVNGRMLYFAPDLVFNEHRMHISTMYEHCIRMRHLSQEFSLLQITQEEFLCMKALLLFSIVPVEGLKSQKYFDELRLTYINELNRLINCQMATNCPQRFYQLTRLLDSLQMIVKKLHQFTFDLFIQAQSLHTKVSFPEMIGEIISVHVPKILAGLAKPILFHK

[4] = target: T2, medaka ARβ (mArβ); assay: Medaka ARβ reporter gene assay, agonist assay; format: cell-based, Japanese medaka (Oryzias latipes)
[5] = target: T1, medaka Esr1 (mEsr1); assay: cell-based; set-up: species or system Japanese medaka (Oryzias latipes); details: for In vitro positive: Esr: mode of action in which EC50 or PC10 was obtained in RGA
[6] = measured concentration 184 μg/L
[7] = measured concentration 836 μg/L
[8] = measured concentration 0.0943 mg/L
[9] = measured concentration 0.939 mg/L
[10] = measured concentration 9.53 mg/L

## CC(C)COC(=O)c1ccccc1C(=O)OCC(C)C [DIBP, Diisobutyl phthalate]
[1]; 35 μg/L measured, 21 d
  Fertility rate: 97 ± 4.8%
  Hepatic VTG, female: 596 ± 144 ng/mg‐liver
  Hepatic VTG, male: 0.3 ± 0.4 ng/mg‐liver
  Mortality: 0.0%
  Mortality, number of dead fish: 0
  Number of fertilized eggs (per female per day): 23 ± 6.6
  Number of total eggs (per female per day): 24 ± 7.0
  SSC female (joint plates with papillary processes): 0 ± 0
  SSC male (joint plates with papillary processes): 96 ± 11
[1]; 184 μg/L measured, 21 d
  Fertility rate: 97 ± 3.9%
  Hepatic VTG, male: 0.2 ± 0.1 ng/mg‐liver
  Mortality: 0.0%
  Mortality, number of dead fish: 0
  Number of fertilized eggs (per female per day): 23 ± 6.9
  Number of total eggs (per female per day): 24 ± 7.2
  SSC female (joint plates with papillary processes): 0 ± 0
  SSC male (joint plates with papillary processes): 96 ± 10
[1]; 184 μg/L measured, 21 d, sig. ↓ vs control
  Hepatic VTG, female: 404 ± 85 ng/mg‐liver
[1]; 836 μg/L measured, 21 d
  Fertility rate: 96 ± 5.4%
  Hepatic VTG, male: 2.2 ± 3.2 ng/mg‐liver
  Mortality: 0.0%
  Mortality, number of dead fish: 0
  Number of fertilized eggs (per female per day): 24 ± 5.9
  Number of total eggs (per female per day): 25 ± 5.8
  SSC female (joint plates with papillary processes): 0 ± 0
  SSC male (joint plates with papillary processes): 97 ± 18
[1]; 836 μg/L measured, 21 d, sig. ↓ vs control
  Hepatic VTG, female: 421 ± 73 ng/mg‐liver
[1]
  LOECREPRO: ND (>836) μg/L
  LOECTOX: ND (>836) μg/L
[1]; Oryzias latipes, 504 h, read-out: LOECmVTG
  minimal effective concentration: > 0.836 µg/mL
[1]; measured concentration 35 μg/L
  GSI Female: 13.3 ± 2.3%
  GSI Male: 1.2 ± 0.2%
  HSI Female: 6.3 ± 1.60%
  HSI Male: 2.7 ± 0.40%
  Length Female: 33.6 ± 1.5 mm
  Length Male: 31.9 ± 1.2 mm
  Weight Female: 446 ± 48 mg
  Weight Male: 335 ± 39 mg
[1]; [6]
  GSI Female: 13.6 ± 1.9%
  GSI Male: 1.0 ± 0.3%
  HSI Female: 6.3 ± 0.90%
  HSI Male: 3.1 ± 0.40%
  Length Female: 32.6 ± 1.5 mm
  Length Male: 31.8 ± 1.4 mm
  Weight Female: 405 ± 52 mg
  Weight Male: 329 ± 55 mg
[1]; [7]
  GSI Female: 12.0 ± 2.0%
  GSI Male: 1.2 ± 0.4%
  HSI Female: 5.9 ± 1.30%
  HSI Male: 3.4 ± 0.40%
  Length Female: 32.6 ± 1.4 mm
  Length Male: 32.4 ± 1.7 mm
  Weight Female: 413 ± 61 mg
  Weight Male: 348 ± 62 mg
[2]; MAC = 1.0 × 10^−5 M
  Antagonistic activity: NE (MAC = 1.0 × 10^−5 M)^(B)
[3]; 11‐KT spiked at 50 nM (D), MAC = 1.0 × 10^−5 M
  Antagonistic activity: NE (MAC = 1.0 × 10^−5 M)^(D)
[4]; MAC = 1.0 × 10^−5 M
  Agonistic activity: NE (MAC = 1.0 × 10^−5 M)
[5]
  Agonistic activity PC10: PC10 = 3.0 × 10^−6 M
  In vitro positive: Esr: Esr

## O=C(c1ccc(O)cc1O)c1ccc(O)cc1O [BP2, Benzophenone‐2]
[1]; 0.0943 mg/L measured, 21 d
  Fertility rate: 95 ± 2.3%
  Hepatic VTG, female: 354 ± 105 ng/mg‐liver
  Hepatic VTG, male: 0.5 ± 0.0 ng/mg‐liver
  Mortality: 0.0%
  Mortality, number of dead fish: 0
  Number of fertilized eggs (per female per day): 15 ± 2.2
  Number of total eggs (per female per day): 15 ± 2.3
  SSC female (joint plates with papillary processes): 0 ± 0
  SSC male (joint plates with papillary processes): 73 ± 7.0
[1]; 0.939 mg/L measured, 21 d
  Fertility rate: 94 ± 2.5%
  Hepatic VTG, female: 398 ± 230 ng/mg‐liver
  Hepatic VTG, male: 0.9 ± 0.5 ng/mg‐liver
  Mortality: 4.2%
  Mortality, number of dead fish: 1
  Number of fertilized eggs (per female per day): 14 ± 2.3
  Number of total eggs (per female per day): 15 ± 2.7
  SSC female (joint plates with papillary processes): 0 ± 0
  SSC male (joint plates with papillary processes): 77 ± 20
[1]; 9.53 mg/L measured, 21 d
  Hepatic VTG, female: 449 ± 114 ng/mg‐liver
  Mortality: 0.0%
  Mortality, number of dead fish: 0
  Number of fertilized eggs (per female per day): 13 ± 1.7
  Number of total eggs (per female per day): 14 ± 1.7
  SSC female (joint plates with papillary processes): 0 ± 0
  SSC male (joint plates with papillary processes): 79 ± 8.4
[1]; 9.53 mg/L measured, 21 d, sig. ↑ vs control
  Hepatic VTG, male: 393 ± 306 ng/mg‐liver
[1]; 9.53 mg/L measured, 21 d, sig. ↓ vs control
  Fertility rate: 90 ± 3.5%
[1]; 21 d
  LOEC, elevated hepatic VTG in males: 9.53 mg/L
[1]; LOEC on VTG induction in males
  LOECmVTG: 9,530 μg/L
[1]
  LOECREPRO: 9,530 μg/L
  LOECTOX: ND (>9,530) μg/L
[1]; concentrations without overt toxicity
  LOECREPRO (reduction in fecundity or fertility): 9,530 μg/L
[1]; [8]
  GSI Female: 6.9 ± 0.3%
  GSI Male: 1.07 ± 0.14%
  HSI Female: 2.8 ± 0.87%
  HSI Male: 1.8 ± 0.37%
  Length Female: 30.2 ± 0.4 mm
  Length Male: 30.8 ± 1.2 mm
  Weight Female: 296 ± 16 mg
  Weight Male: 291 ± 27 mg
[1]; [9]
  GSI Female: 7.6 ± 1.2%
  GSI Male: 0.69 ± 0.15%
  HSI Female: 3.1 ± 0.68%
  HSI Male: 1.9 ± 0.24%
  Length Female: 30.3 ± 1.0 mm
  Length Male: 30.6 ± 1.1 mm
  Weight Female: 304 ± 48 mg
  Weight Male: 290 ± 32 mg
[1]; [10]
  GSI Female: 8.6 ± 0.4%
  GSI Male: 0.79 ± 0.23%
  HSI Female: 3.5 ± 0.58%
  HSI Male: 2.0 ± 0.55%
  Length Female: 30.4 ± 0.5 mm
  Length Male: 31.9 ± 1.1 mm
  Weight Female: 295 ± 8.0 mg
  Weight Male: 327 ± 34 mg
[2]; MAC = 1.0 × 10^−4 M
  Antagonistic activity: NE (MAC = 1.0 × 10^−4 M)^(B)
[3]; mode of action in which IC50 or IC30 was obtained in RGA
  In vitro positive: aAr: aAr
[3]; read-out: Antagonistic activity IC50, 11‐KT spiked at 50 nM (D)
  IC50: 40 µM
[3]; transcriptional activity on mArβ by 11KT
  Antagonistic activity on mArβ (in words): inhibitory potency
[4]; HepG2 cells, concentration with 10% of maximum activity of 11KT
  Agonistic activity PC10: PC10 = 1.2 × 10^−5 M
[4]; only PC10 and not EC50 could be estimated
  Agonistic activity on mArβ (in words): positive agonistic activity
[5]
  In vitro positive: Esr: Esr
[5]; read-out: Agonistic activity EC50, HEK293 cells
  EC50: 1.6 µM
